{"source": "patent US10098880B2", "about": "(CELLWORKS GROUP INC., priority 2014, dated 2018)", "key": {"[1]": {"conditions": "cited from earlier work"}, "[2]": {"system": "U251 cell line (PTEN, TP53 and CDKN2A mutated)", "experiment": "In-vitro relative growth assay (CellTiter 96 Aqueous One), U251 cell line", "format": "cell-based, human", "conditions": "FIG. 4A: Nelfinavir 5 μM, Metformin 0.5 mM, Rosuvastatin 12.5 μM, individually or combined, about 71 hours", "description": "(§1) U251 cell line is procured from Sigma-Aldrich (Catalog number: 09063001). The U87 human cell line is procured from ATCC (American Type Culture Collection, Manassas, Va., ATCC® HTB-14TM). LN229 cell line is procured from ATCC (American Type Culture Collection, Manassas, Va., […]). […] 100 μl/well of the diluted sample is added to assay plate containing resuspended cells. […] The assay plate is incubated for about 71 hours followed by addition of about 20 μl of Promega Substrate CellTiter 96 Aqueous One Solution Reagent to each well. It is incubated at 37° C. The absorbance of the sample is read at about 490 nm."}, "[3]": {"system": "U87 cell line (PTEN and CDKN2A mutated)", "experiment": "In-vitro relative growth assay (CellTiter 96 Aqueous One), U87 cell line", "format": "cell-based, human", "conditions": "FIG. 4A: Nelfinavir 5 μM, Metformin 0.5 mM, Rosuvastatin 12.5 μM, individually or combined, about 71 hours", "description": "[table] U251 cell line is procured from Sigma-Aldrich (Catalog number: 09063001). The U87 human cell line is procured from ATCC (American Type Culture Collection, Manassas, Va., ATCC® HTB-14TM). LN229 cell line is procured from ATCC (American Type Culture Collection, Manassas, Va., […]). […] DMSO, Digitoxin and drugs (Nelfinavir, Metformin and Rosuvastatin individually and in combination) are serial diluted in an assay media. 100 μl/well of the diluted sample is added to assay plate containing resuspended cells. […] The assay plate is incubated for about 71 hours followed by addition of about 20 μl of Promega Substrate CellTiter 96 Aqueous One Solution Reagent to each well. It is incubated at 37° C. The absorbance of the sample is read at about 490 nm."}, "[4]": {"system": "LN229 cell line (TP53 and CDKN2A mutated)", "experiment": "In-vitro relative growth assay (CellTiter 96 Aqueous One), LN229 cell line", "format": "cell-based, human", "conditions": "FIG. 4A: Nelfinavir 5 μM, Metformin 0.5 mM, Rosuvastatin 12.5 μM, individually or combined, about 71 hours", "description": "as §1"}, "AKT": {"target": "AKT (Homo sapiens, UniProt P31749)", "sequence (P31749 whole entry)": "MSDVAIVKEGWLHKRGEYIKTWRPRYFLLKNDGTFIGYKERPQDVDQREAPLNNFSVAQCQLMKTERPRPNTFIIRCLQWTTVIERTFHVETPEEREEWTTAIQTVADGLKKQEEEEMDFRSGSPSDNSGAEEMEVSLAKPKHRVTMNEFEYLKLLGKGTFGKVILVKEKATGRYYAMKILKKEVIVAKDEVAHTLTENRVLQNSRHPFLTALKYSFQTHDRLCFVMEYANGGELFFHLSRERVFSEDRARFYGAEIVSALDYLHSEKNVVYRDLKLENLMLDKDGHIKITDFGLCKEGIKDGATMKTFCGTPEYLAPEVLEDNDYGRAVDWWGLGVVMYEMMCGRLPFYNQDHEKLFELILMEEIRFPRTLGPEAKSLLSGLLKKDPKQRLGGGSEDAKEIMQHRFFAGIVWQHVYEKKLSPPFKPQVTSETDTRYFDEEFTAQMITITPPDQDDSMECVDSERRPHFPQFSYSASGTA", "conditions": "reported, PMID 23454896; inhibition of AKT phosphorylation at Ser473; cited from earlier work"}, "[5]": {"conditions": "cited from earlier work", "remark": "listed apart in the source"}, "HMG-CoA reductase": {"target": "T1, HMG-CoA reductase (Homo sapiens, UniProt P04035)", "T1 sequence (P04035 1-888)": "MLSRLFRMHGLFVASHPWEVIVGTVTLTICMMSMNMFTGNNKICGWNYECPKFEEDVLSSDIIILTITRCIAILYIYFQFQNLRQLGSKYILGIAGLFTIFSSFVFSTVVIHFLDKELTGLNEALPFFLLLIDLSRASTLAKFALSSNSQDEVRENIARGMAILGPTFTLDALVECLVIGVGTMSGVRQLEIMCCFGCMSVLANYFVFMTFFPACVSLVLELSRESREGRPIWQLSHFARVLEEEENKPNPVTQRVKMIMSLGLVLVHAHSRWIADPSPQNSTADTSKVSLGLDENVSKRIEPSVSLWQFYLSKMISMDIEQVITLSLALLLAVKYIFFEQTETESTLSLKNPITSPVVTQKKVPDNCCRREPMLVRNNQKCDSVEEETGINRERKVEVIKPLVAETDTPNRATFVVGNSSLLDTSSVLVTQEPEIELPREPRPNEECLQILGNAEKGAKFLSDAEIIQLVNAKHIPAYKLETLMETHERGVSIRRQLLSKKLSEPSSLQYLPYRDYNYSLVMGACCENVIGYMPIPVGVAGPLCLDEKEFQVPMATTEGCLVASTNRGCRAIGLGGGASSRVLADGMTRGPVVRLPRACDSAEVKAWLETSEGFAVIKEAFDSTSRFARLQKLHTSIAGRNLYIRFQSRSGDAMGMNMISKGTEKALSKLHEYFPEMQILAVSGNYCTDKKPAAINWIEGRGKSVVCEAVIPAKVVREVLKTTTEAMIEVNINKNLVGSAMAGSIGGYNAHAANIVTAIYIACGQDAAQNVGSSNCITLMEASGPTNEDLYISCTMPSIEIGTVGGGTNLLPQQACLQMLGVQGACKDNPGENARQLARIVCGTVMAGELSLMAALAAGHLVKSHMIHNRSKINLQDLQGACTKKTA", "conditions": "in vitro; cited from earlier work"}, "[6]": {"conditions": "cited from earlier work", "remark": "listed apart in the source"}, "[7]": {"conditions": "oral 750 mg dose containing 14C-nelfinavir"}}, "data": [{"smiles": "CN(C)C(=N)N=C(N)N", "note": "[Metformin, 1-carbamimidamido-N,N-dimethyl-methanimidamide]", "values": [{"measurement": "time of peak action", "setting": "[1]; after oral administration", "value": 3, "unit": "h"}, {"measurement": "Duration of action", "setting": "[1]; in vivo", "value": "8 to 12", "unit": "h"}, {"measurement": "time over which absorbed", "setting": "[1]; in vivo", "value": 6, "unit": "h"}, {"measurement": "drug eliminated in 24 hours", "setting": "[1]; those with healthy renal function", "value": "Approximately 90%"}]}, {"smiles": "Cc1c(O)cccc1C(=O)N[C@@H](CSc1ccccc1)[C@H](O)CN1C[C@H]2CCCC[C@H]2C[C@H]1C(=O)NC(C)(C)C", "note": "[Nelfinavir, (3S,4aS,8aS)-N-tert-butyl-2-[(2R,3R)-2-hydroxy-3-[(3-hydroxy-2-methylbenzoyl)amino]-4-phenylsulfanylbutyl]-3,4,4a,5,6,7,8,8a-octahydro-1H-isoquinoline-3-carboxamide]", "values": [{"measurement": "reduction in relative growth", "setting": "[2]", "value": "do not show much efficacy"}, {"measurement": "reduction in relative growth", "setting": "[3]", "value": "do not show much efficacy"}, {"measurement": "reduction in relative growth", "setting": "[4]", "value": "do not show much efficacy"}, {"measurement": "concentration causing AKT inhibition", "setting": "AKT", "value": 20, "unit": "µM"}, {"measurement": "predominant enzymes that metabolize nelfinavir", "setting": "[5]; in humans, hepatic CYP450", "value": "CYP3A and CYP2C19"}, {"measurement": "Half-life (terminal half-life in plasma)", "setting": "[5]; in vivo", "value": "3.5 to 5", "unit": "h"}, {"measurement": "dose recovered in the feces", "setting": "[5]; [7]", "value": 87, "unit": "%"}, {"measurement": "dose recovered in urine", "setting": "[5]; [7]", "value": "1-2%"}, {"measurement": "fecal radioactivity as oxidative metabolites", "setting": "[5]; [7]", "value": 78, "unit": "%"}, {"measurement": "fecal radioactivity as unchanged nelfinavir", "setting": "[5]; [7]", "value": 22, "unit": "%"}, {"measurement": "Absorption", "setting": "[5]; oral administration", "value": "Well absorbed"}]}, {"smiles": "CC(C)c1nc(NS(C)(=O)=O)nc(-c2ccc(F)cc2)c1/C=C/[C@@H](O)C[C@@H](O)CC(=O)O", "note": "[N-desmethylrosuvastatin]", "values": [{"measurement": "pharmacological activity relative to parent compound", "setting": "HMG-CoA reductase", "value": "approximately 50%"}]}, {"smiles": "CC(C)c1nc(N(C)S(C)(=O)=O)nc(-c2ccc(F)cc2)c1/C=C/[C@@H](O)C[C@@H](O)CC(=O)O", "note": "[Rosuvastatin, (E,3R,5S)-7-[4-(4-fluorophenyl)-2-[methyl(methylsulfonyl)amino]-6-propan-2-ylpyrimidin-5-yl]-3,5-dihydroxyhept-6-enoic acid]", "values": [{"measurement": "reduction in relative growth", "setting": "[2]", "value": "do not show much efficacy"}, {"measurement": "reduction in relative growth", "setting": "[3]", "value": "do not show much efficacy"}, {"measurement": "reduction in relative growth", "setting": "[4]", "value": "do not show much efficacy"}, {"measurement": "total body clearance by the hepatic route", "setting": "[6]; after an intravenous dose", "value": 72, "unit": "%"}, {"measurement": "total body clearance via the renal route", "setting": "[6]; after an intravenous dose", "value": "approximately 28%"}, {"measurement": "excreted in the feces (rosuvastatin and its metabolites)", "setting": "[6]; following oral administration", "value": 90, "unit": "%"}, {"measurement": "Bioavailability", "setting": "[6]; in vivo", "value": "approximately 20%"}, {"measurement": "Half-life", "setting": "[6]; in vivo", "value": 19, "unit": "h"}, {"measurement": "excreted as metabolite", "setting": "[6]; in vivo", "value": "~10", "unit": "%"}, {"measurement": "increase of AUC by inhibitors of CYP2C9", "setting": "[6]; in vivo", "value": "less than 2 fold"}, {"measurement": "radiolabeled dose recovered as metabolite", "setting": "[6]; in vivo", "value": "approximately 10%"}, {"measurement": "share of the pharmacologic action accounted for by parent", "setting": "[6]; in vivo", "value": "greater than 90%"}]}]}
